# From patent US20190211317A1, “PEPTIDES AND NANOPARTICLES FOR INTRACELLULAR DELIVERY OF GENOME-EDITING MOLECULES” (Aadigen, LLC, priority 2016, published 2019)
# Like-named read-outs stand apart in the source and are kept apart here.
# Tests used:
# [1] = tested on: endogenous hPD1 gene in JURKAT and K562 cells; assay: hPD1 gene editing in T cell lines (T7E1 assay); type: cell-based, human
# Procedure: CAS9 protein was preloaded with purified sgRNA at a molar ratio of 1:1 and incubated for 10 min prior to forming complexes with peptides.
# 5×10^6 cells were washed twice with DPBS by centrifuging at 800 rpm for 5 minutes and resuspended in 100 ^l transfection buffer, and then transferred into the electroporation cuvette. An optimized program selected for both high transfection and high efficiency on T cells was used. After electroporation, cells were resuspended in 500 ^l pre-warmed AIM-V medium containing 10% FBS and incubated at 37° C. in 5% CO2. The transfection efficiency was evaluated after 48 hr by flow cytometry or T7E1 assay.
# RNAiMAX delivery method was used as positive control. Cells were either resuspended in or overlaid with 100 μl of preformed complexes, incubated for 3-5 min, and then 300 μl of DMEM was added. […] The indel frequency in the hPD1 gene was quantified using the T7E1 assay.
# [2] = tested on: EGFP-U2OS, EGFP-HEK, EGFP-JURKAT cells; assay: Toxicity of CPP/CAS9/gRNA complexes (MTT assay); type: cell-based; details: three cell lines; concentrations up to 100 nM; 24 h
# Procedure: The robust EGFP disruption observed in the three cell lines was found not to be the result of cellular toxicity. […] A total of 30,000 cells seeded in 24-well plates the day prior to transfection were incubated with increasing concentrations of CPP/CAS9/gRNA (complexed at a 10:1 or 20:1 molar ratio of CPP to preloaded CAS9/gRNA complex) ranging from 1 to 200 nM for 30 min prior to addition of medium to reach a final 10% concentration of FCS. Cytotoxic response was measured 24 hours later by colorimetric MTT assay (Sigma, Germany). For MTT assay, cell culture medium was removed and replaced with PBS containing 2.5 mg/ml MTT for 4 hours. Results correspond to the average of 3 separate experiments. […] Viability was reduced by less than 10% at 200 nM. In contrast, at […] for Lipofectamine 2000 or RNAiMAX, between 60-70% and 20-25% cell death was observed, depending on cell line. Moreover, both lipid methods appeared to be highly toxic on JURKAT cells, inducing 75% (lipofectamine 2000) or 45% (RNAiMAX) cell death.
# PCSK9 = assay: In vivo CAS9 mRNA/gRNA targeting PCSK9: serum PCSK9 (ELISA); design: species or system mouse
# Procedure: Polyadenylated and capped CAS9 mRNA was obtained from ThermoFisher, and gRNA (5 μg) targeting PCSK9 Exon 1 was obtained from Eurogentec. […] Free CAS9 mRNA/gRNA was injected as a control.
# Blood samples were collected by saphenous vein bleeds at multiple time points (day 3, 6, 10, and 21), collecting no more than 100 μl or 10% of total blood volume per week. Serum levels of PCSK9 were determined by ELISA using the Mouse Proprotein Convertase 9/PCSK9 Quantikine ELISA Kit (MPC-900, R&DSystems).
# [3] = tested on: endogenous EMX1 gene in U2OS, HEPG2, K562 cells and primary human fibroblasts; assay: EMX1 editing from CPP delivery of CAS9 protein/gRNA (T7E1); type: cell-based; details: each of the cell types tested; 2.5 μg/5 μg CAS9/gRNA
# Procedure: CPP/CAS9/gRNA complexes were prepared by mixing preloaded CAS9/gRNA complexes (2.5 μg/5 μg CAS9/gRNA) with CPP peptides at a 20:1 molar ratio of CPP to cargo and incubating for 30 min at 37° C. prior to cell transfection. Cells were transfected according to the protocols described in Example 13a, and RNAiMAX-mediated delivery (Invitrogen Thermo Fisher France) was used as a control. EMX1 gene editing was analyzed at day 3 and day 6 by T7E1 assay and quantified using a Fragment Analyzer System.
# [4] = tested on: endogenous EMX1 gene in U2OS, HEPG2 cells and primary human fibroblasts; assay: EMX1 editing from CPP delivery of CAS9-expressing plasmid and gRNA (T7E1); type: cell-based; details: the three cell types
# Procedure: EMX1-targeting gRNAs were prepared as described above. CPP/plasmid/gRNA complexes were prepared by mixing 0.5 μg of a CAS9-expressing plasmid (Addgene MLM3639-Plasmid #42252) and 5 μg gRNA with CPP at a 20:1 molar ratio of CPP to nucleic acid (plasmid+gRNA) and incubating for 30 min at 37° C. prior to cell transfection. Suspension and adherent cells were transfected according to the protocols described in Example 13a. Lipofectamine 2000- and RNAiMAX-mediated delivery methods (Invitrogen Thermo Fisher France) were used as controls. EMX1 gene editing was analyzed at day 3 and day 6 by T7E1 assay and quantified using a Fragment Analyzer System.
# [5] = tested on: exogenous eGFP gene reporter in eGFP-U2OS cell line; details: 72 h
# Procedure: Both lipofectamine 2000 and RNAiMAX delivery methods were included as controls. eGFP-U2OS cells were cultured in Dulbecco's Modified Eagle's Medium (DMEM), supplemented with 2 mM glutamine, 1% antibiotics (streptomycin 10,000 μg/mL, penicillin, 10,000 IU/mL) and 10% (w/v) foetal calf serum (FCS), at 37° C. in a humidified atmosphere containing 5% CO2. A total of 150,000 cells seeded in a 35 mm dish the day prior to transfection were grown to 50-60% confluence and overlaid with 200 μl of preformed complexes, incubated for 5 min, then 400 μl of DMEM was added. After 20 min incubation at 37° C., 1 mL of fresh DMEM containing 16% FCS was added in order to reach a final FCS concentration of 10%, without removing the overlay of complexes. Cells were returned to the incubator for 72 hours.
# [6] = tested on: endogenous EMX1, AAVS and HPRT genes in Mouse (ESF-158) embryonic stem cells; assay: Delivery of multiple RGEN:gRNA complexes: EMX1, AAVS, HPRT editing in mouse ES cells (T7E1); type: cell-based
# Procedure: RNAiMAX delivery method was used as a positive control.
# U2OS cells were treated as described previously. H9 embryonic stem cells were cultured in Dulbecco's modified Eagle's medium with 4 mM L-glutamine adjusted to contain 1.5 g/L sodium bicarbonate and 4.5 g/L glucose and supplemented with 0.1 mM 2-mercaptoethanol, 85%; and 15% ES-Cell Qualified fetal bovine serum. […] CAS9-induced double-strand break formation followed by repair through NHEJ was analyzed 72 hr after transfection by T7E1 assay and quantified using Fragment Analyzer System. The deletion (indel) frequencies in EMX1, AAVS and HPRT genes were quantified using T7E1 assay. Data for on-target mutations induced by RGEN:gRNA are reported as an average of 3 separate experiments.
# Swiss mice = assay: In vivo delivery of CAS9 mRNA by three CPPs: CAS9 expression in tissues (ELISA); design: species or system mouse
# Procedure: Free CAS9 mRNA in physiological buffer was injected as a control.
# At day 3, day 6, and day 10 following injection, animals were sacrificed and tissues including lung, liver, brain, kidney, heart, spleen, blood, pancreas, muscle, bone marrow, and intestine were collected. Tissues were homogenized and CAS9 protein levels in protein extracts were analyzed by ELISA using an antibody against CRISPR/Cas9 (SBI clone 7A9).
smiles,measurement,setting,value
CC(C)C[C@H](NC(=O)[C@H](CCCNC(=N)N)NC(=O)[C@H](Cc1c[nH]c2ccccc12)NC(=O)[C@H](CCCNC(=N)N)NC(=O)[C@H](Cc1c[nH]c2ccccc12)NC(=O)CNC(=O)[C@H](C)NC(=O)[C@H](CO)NC(=O)[C@H](CCCNC(=N)N)NC(=O)[C@H](Cc1c[nH]c2ccccc12)NC(=O)[C@H](CCCCN)NC(=O)CCN)C(=O)N[C@@H](Cc1c[nH]c2ccccc12)C(=O)N[C@@H](CCCNC(=N)N)C(=O)N[C@H](C(=O)N[C@@H](CCCNC(=N)N)C(=O)N[C@@H](CO)C(=O)N[C@@H](Cc1c[nH]c2ccccc12)C(=O)N[C@@H](CO)C(=O)N[C@@H](CCCNC(=N)N)C(=O)O)C(C)C [ADGN-100a],Mean indel Frequency ± s.e.m,"[1]; JURKAT, CAS9/sgRNA 2.5 μg/5 μg",70 ± 5%
same,Mean indel Frequency ± s.e.m,"[1]; JURKAT, CAS9/sgRNA 5 μg/10 μg",72%
same,Mean indel Frequency ± s.e.m,"[1]; JURKAT, CAS9/sgRNA 5 μg/10 μg, listed as ADGN400a",72 ± 2%
same,Mean indel Frequency ± s.e.m,"[1]; K562, CAS9/sgRNA 2.5 μg/5 μg",68 ± 2%
same,Mean indel Frequency ± s.e.m,"[1]; K562, CAS9/sgRNA 5 μg/10 μg",71%
same,Mean indel Frequency ± s.e.m,"[1]; K562, CAS9/sgRNA 5 μg/10 μg, listed as ADGN400a",71 ± 5%
same,toxicity,[2],no toxicity
same,decrease of serum levels of PSCK9,"PCSK9; day 1, CAS9 mRNA 5 μg/gRNA 5 μg single i.v.",51%
same,decrease of serum levels of PSCK9,PCSK9; day 3,62%
same,decrease of serum levels of PSCK9,PCSK9; day 6,69%
same,decrease of serum levels of PSCK9,PCSK9; day 10,65%
same,decrease of serum levels of PSCK9,PCSK9; day 14,65%
same,decrease of serum levels of PSCK9,PCSK9; day 20,60%
same,mean indel frequencies,[3],60-65%
same,mean indel frequencies,[4],45-50%
same,decrease in EGFP expression,[5]; CAS9 mRNA/gRNA (0.5 μg/5 μg),85%
same,decrease in EGFP expression,[5]; CAS9 protein/gRNA (2.5 μM/5 μM),87%
same,Mean indel Frequency ± S.E.M,[6]; AAVS,71 ± 5%
same,Mean indel Frequency ± S.E.M,[6]; EMX1,75 ± 5%
same,Mean indel Frequency ± S.E.M,[6]; HPRT,70 ± 4%
same,CAS9 expression,"Swiss mice; day 10, liver",CAS9 expression was observed
same,ELISA signal for CAS9 protein expression,"Swiss mice; liver, day 3 and day 6, CAS9 mRNA 5 μg i.v., 20:1",greater than 20 times that of background
same,CAS9 protein expression,Swiss mice; other tissues examined,Little to no increase
